Source: PubChem BioAssay (NCI)
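Protocol summary: plate cells (96-well), add compound at 5 concentrations, incubate 48 h, interpolate endpoints linearly. The concentration for 50% growth inhibition is given as GI50. At the TGI there is no net growth.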

Key:
Test in all cases: NCI anticancer screen, dose series, 48 h
[1] = test system: CAKI-1 renal
[2] = test system: OVCAR-5 ovarian
[3] = test system: HOP-92 NSCLC
[4] = test system: A549 NSCLC
[5] = test system: MOLT-4 leukemia
[6] = test system: SK-MEL-28 melanoma
[7] = test system: MDA-MB-231 breast
[8] = test system: LOX IMVI melanoma
[9] = test system: HS 578T breast
[10] = test system: DU-145 prostate

SMILES | TGI [1] [µM] | TGI [2] [µM] | TGI [3] [µM] | TGI [4] [µM] | TGI [5] [µM] | TGI [6] [µM] | TGI [7] [µM] | TGI [8] [µM] | TGI [9] [µM] | TGI [10] [µM] | GI50 [1] [µM] | GI50 [2] [µM] | GI50 [4] [µM] | GI50 [5] [µM] | GI50 [6] [µM]
CC(C)OP(=O)(OC(C)C)c1ncn(-c2ccc([N+](=O)[O-])cc2)n1 | > 100 | > 100 | > 100 | > 100 | > 100 | > 100 | – | – | – | – | – | – | – | – | –
Cc1ccc(-c2c(C#N)c(O)n(NS(=O)(=O)c3ccccc3)c(=O)c2C#N)cc1 | > 100 | > 100 | > 100 | > 100 | > 100 | > 100 | > 100 | > 100 | – | – | – | – | – | – | –
O=C1CSC(c2ccc(Cl)cc2)N1c1ccc(-n2c(-c3ccccc3)nc3ccccc3c2=O)cc1 (stereo unspecified) | > 100 | > 100 | > 100 | > 100 | > 100 | > 100 | > 100 | > 100 | > 100 | – | – | – | – | – | –
CCC1(CC)C(=O)N(C(=O)c2ccc(Cl)cc2)N(C(=O)c2ccccc2Cl)C1=O | > 100 | > 100 | – | > 100 | 52.2 | > 100 | > 100 | 50.3 | > 100 | > 100 | – | – | – | – | –
N#Cc1ccc(/C=C2\Cc3ccccc3C2=O)cc1 | > 100 | – | – | > 100 | > 100 | > 100 | > 100 | – | > 100 | > 100 | – | – | – | – | –
CC(C)(C)C(=O)Cc1cc2c(cc1C(=O)O)S(=O)(=O)NC(C(C)(C)C)=C2 | > 100 | > 100 | > 100 | > 100 | > 100 | > 100 | – | – | – | – | – | – | – | – | –
COC[C@H](Cc1ccccc1)N=Cc1ccccc1 | > 100 | > 100 | – | > 100 | > 100 | > 100 | – | > 100 | > 100 | > 100 | – | – | – | – | –
C[N+]12C=CC=C1C(N1CCCC1)c1sc(-c3ccc(Cl)cc3)cc12 (stereo unspecified) | > 100 | 35.8 | – | 87.6 | 53.5 | 31.6 | 35.5 | 29.5 | 50.9 | 32.6 | – | – | – | – | –
CN(C)CCCN1c2ccc3ccccc3c2Sc2cccc(Cl)c21 | 16.6 | 17.7 | 9.1 | 19 | 4.75 | 4.3 | 8.07 | – | 21.7 | 14.8 | – | – | – | – | –
COc1ccc2[nH]c3c(C)c4ccnc(NCCCN(C)CCCNC(=O)NCCCN(C)CCCNc5nccc6c(C)c7[nH]c8ccc(OC)cc8c7c(C)c56)c4c(C)c3c2c1 | 3.34 | 4.13 | 3.93 | – | > 12.4 | > 15.5 | > 50 | – | > 50 | > 10.9 | – | – | – | – | –
O=C(CSCC(=O)N/N=C\c1cc(Br)cc(Br)c1O)N/N=C\c1cc(Br)cc(Br)c1O | 73 | > 100 | 79 | > 100 | 74.7 | > 100 | – | 34.1 | > 100 | > 100 | – | – | – | – | –
O=c1[nH]/c(=C/c2ccc(OCc3ccccc3)cn2)c(=O)[nH]/c1=C/c1cccnc1 | > 100 | > 100 | > 100 | > 100 | – | > 100 | – | > 100 | – | 2.08 | – | – | – | – | –
O=c1n(CCO)nc2n1CCCN2 | – | > 100 | > 100 | > 100 | > 100 | > 100 | > 100 | > 100 | > 100 | > 100 | – | – | – | – | –
c1ccc(C2(c3cc4ccccc4[nH]3)OCCO2)cc1 | > 100 | > 100 | > 100 | > 100 | 49.4 | > 100 | > 100 | > 100 | – | > 100 | – | – | – | – | –
COC[C@@H](N=Cc1ccc(OC)cc1)C(C)C | > 100 | > 100 | – | > 100 | > 100 | > 100 | – | > 100 | > 100 | > 100 | – | – | – | – | –
COc1ccc(C2Oc3cc(OC)c(O)cc3[C@@H]2C)cc1 (stereo partly specified) | 96.2 | > 100 | 72.1 | > 100 | 42.8 | > 100 | – | 27.9 | – | – | – | – | – | – | –
Cc1[nH]c(=O)nc2c1C(=O)N(C(C)C)C(NC(C)C)S2 (stereo unspecified) | > 100 | > 100 | > 100 | > 100 | > 100 | > 100 | > 100 | > 100 | – | > 100 | – | – | – | – | –
CN1C(=N\S(=O)(=O)c2ccc(Cl)cc2)/C(=N/N=P(c2ccccc2)(c2ccccc2)c2ccccc2)c2ccccc21 | > 100 | > 100 | – | > 100 | > 100 | > 100 | – | – | – | – | – | – | – | – | –
CC1=CC(=O)C[C@]2(C)[C@@H](O)CC(C(C)CO)C[C@@H]12 (stereo partly specified) | > 100 | > 100 | > 100 | > 100 | > 100 | > 100 | > 100 | > 100 | – | > 100 | – | – | – | – | –
Clc1ccc(CCn2ccc3ccccc32)c(Cl)c1 | > 100 | > 100 | > 100 | > 100 | > 100 | – | > 100 | – | > 100 | > 100 | – | – | – | – | –
OB1OCc2ccccc21 | > 100 | – | – | > 100 | > 100 | 63 | > 100 | > 100 | > 100 | > 100 | – | – | – | – | –
COCN1C(=O)[C@@H]2C[C@@H](OC/C=C/CBr)CN2C(=O)c2ccccc21 | 38.7 | 49.7 | – | 35.5 | > 100 | 45.4 | 55.1 | 13.1 | > 100 | 43.9 | – | – | – | – | –
O=C(CCc1nnc2s/c(=C\c3ccc(Cl)cc3Cl)c(=O)n12)Nc1cc(Cl)c(Cl)cc1Cl | > 100 | > 100 | > 100 | > 100 | > 100 | > 100 | – | – | – | – | > 100 | > 100 | > 100 | > 100 | > 100
CC(C)(C)OC(=O)N1CC(COS(C)(=O)=O)c2ccc(O)cc21 (stereo unspecified) | 9.62 | 5.86 | 5.56 | 10.7 | 3.92 | 3.8 | 8.41 | – | 5.75 | 3.53 | – | – | – | – | –
